Test system: 596521-263-R-J1-PDC complex spheroid growth
Assay: Anticancer human tumor 596521-263-R-J1-PDC patient-derived soft tissue sarcoma cell line growth inhibition [Asc]
Details: for IC50: curve of first compound; for viability, T/C: stronger effect = lower value
Procedure, shortened: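 Concentration series start at each agent's clinical Cmax, or at 10 microM when none is established, and drop in half-log steps; agents are applied alone or together to complex spheroids built with HUVEC and hMSC.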
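Also: spheroids exposed to compounds for 7 days.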

SMILES: C#Cc1c(F)ccc2cc(O)cc(-c3ncc4c(N5CC6CCC(C5)N6)nc(OCC56CCCN5CC(F)C6)nc4c3F)c12 (centres undefined) + CNC(C)C(=O)NC1CN(S(=O)(=O)c2cccc(S(=O)(=O)N3CCC4CCC(C(=O)NC(c5ccccc5)c5ccccc5)N4C(=O)C(NC(=O)C(C)NC)C3)c2)CCC2CCC(C(=O)NC(c3ccccc3)c3ccccc3)N2C1=O
- IC50 (second compound 0.00316 µM): > 10 µM
- IC50 (second compound 0.01 µM): > 10 µM
- IC50 (second compound 0.0316 µM): > 10 µM
- IC50 (second compound 0.1 µM): > 10 µM
- IC50 (second compound 0.316 µM): > 10 µM
- IC50 (second compound 1 µM): > 10 µM
- viability, T/C (second compound 0.00316 µM, first compound 0.0316 µM): 93.7%
- viability, T/C (second compound 0.00316 µM, first compound 0.1 µM): 89.4%
- viability, T/C (second compound 0.00316 µM, first compound 0.316 µM): 87.3%
- viability, T/C (second compound 0.00316 µM, first compound 1 µM): 105%
- viability, T/C (second compound 0.00316 µM, first compound 3.16 µM): 94.6%
- viability, T/C (second compound 0.00316 µM, first compound 10 µM): 81.8%
- viability, T/C (second compound 0.01 µM, first compound 0.0316 µM): 99.4%
- viability, T/C (second compound 0.01 µM, first compound 0.1 µM): 106%
- viability, T/C (second compound 0.01 µM, first compound 0.316 µM): 86.7%
- viability, T/C (second compound 0.01 µM, first compound 1 µM): 92.9%
- viability, T/C (second compound 0.01 µM, first compound 3.16 µM): 97.1%
- viability, T/C (second compound 0.01 µM, first compound 10 µM): 64.4%
- viability, T/C (second compound 0.0316 µM, first compound 0.0316 µM): 90.2%
- viability, T/C (second compound 0.0316 µM, first compound 0.1 µM): 87.1%
- viability, T/C (second compound 0.0316 µM, first compound 0.316 µM): 99.6%
- viability, T/C (second compound 0.0316 µM, first compound 1 µM): 102%
- viability, T/C (second compound 0.0316 µM, first compound 3.16 µM): 90.6%
- viability, T/C (second compound 0.0316 µM, first compound 10 µM): 61.1%
- viability, T/C (second compound 0.1 µM, first compound 0.0316 µM): 91.5%
- viability, T/C (second compound 0.1 µM, first compound 0.1 µM): 70.6%
- viability, T/C (second compound 0.1 µM, first compound 0.316 µM): 83.5%
- viability, T/C (second compound 0.1 µM, first compound 1 µM): 80%
- viability, T/C (second compound 0.1 µM, first compound 3.16 µM): 84%
- viability, T/C (second compound 0.1 µM, first compound 10 µM): 72.3%
- viability, T/C (second compound 0.316 µM, first compound 0.0316 µM): 80.3%
- viability, T/C (second compound 0.316 µM, first compound 0.1 µM): 82.8%
- viability, T/C (second compound 0.316 µM, first compound 0.316 µM): 91.2%
- viability, T/C (second compound 0.316 µM, first compound 1 µM): 94.8%
- viability, T/C (second compound 0.316 µM, first compound 3.16 µM): 78.7%
- viability, T/C (second compound 0.316 µM, first compound 10 µM): 62.5%
- viability, T/C (second compound 1 µM, first compound 0.0316 µM): 74.7%
- viability, T/C (second compound 1 µM, first compound 0.1 µM): 74.5%
- viability, T/C (second compound 1 µM, first compound 0.316 µM): 81.2%
- viability, T/C (second compound 1 µM, first compound 1 µM): 92.6%
- viability, T/C (second compound 1 µM, first compound 3.16 µM): 83.3%
- viability, T/C (second compound 1 µM, first compound 10 µM): 58.7%

SMILES: Cc1nc(N2CCC3(CC2)COC(C)C3N)c(CO)nc1Sc1ccnc(N)c1Cl (centres undefined) + CNC(C)C(=O)NC1CN(S(=O)(=O)c2cccc(S(=O)(=O)N3CCC4CCC(C(=O)NC(c5ccccc5)c5ccccc5)N4C(=O)C(NC(=O)C(C)NC)C3)c2)CCC2CCC(C(=O)NC(c3ccccc3)c3ccccc3)N2C1=O
- IC50 (second compound 0.00316 µM): > 3 µM
- IC50 (second compound 0.01 µM): > 3 µM
- IC50 (second compound 0.0316 µM): > 3 µM
- IC50 (second compound 0.1 µM): 2.25 µM
- IC50 (second compound 0.316 µM): > 3 µM
- IC50 (second compound 1 µM): 1.62 µM
- viability, T/C (second compound 0.00316 µM, first compound 0.00949 µM): 101%
- viability, T/C (second compound 0.00316 µM, first compound 0.03 µM): 93.3%
- viability, T/C (second compound 0.00316 µM, first compound 0.0949 µM): 98.7%
- viability, T/C (second compound 0.00316 µM, first compound 0.3 µM): 97.3%
- viability, T/C (second compound 0.00316 µM, first compound 0.949 µM): 75.8%
- viability, T/C (second compound 0.00316 µM, first compound 3 µM): 57.6%
- viability, T/C (second compound 0.01 µM, first compound 0.00949 µM): 96.9%
- viability, T/C (second compound 0.01 µM, first compound 0.03 µM): 87.4%
- viability, T/C (second compound 0.01 µM, first compound 0.0949 µM): 89.8%
- viability, T/C (second compound 0.01 µM, first compound 0.3 µM): 80.6%
- viability, T/C (second compound 0.01 µM, first compound 0.949 µM): 73.1%
- viability, T/C (second compound 0.01 µM, first compound 3 µM): 61%
- viability, T/C (second compound 0.0316 µM, first compound 0.00949 µM): 102%
- viability, T/C (second compound 0.0316 µM, first compound 0.03 µM): 82.2%
- viability, T/C (second compound 0.0316 µM, first compound 0.0949 µM): 94.2%
- viability, T/C (second compound 0.0316 µM, first compound 0.3 µM): 77%
- viability, T/C (second compound 0.0316 µM, first compound 0.949 µM): 71.5%
- viability, T/C (second compound 0.0316 µM, first compound 3 µM): 50.7%
- viability, T/C (second compound 0.1 µM, first compound 0.00949 µM): 90.5%
- viability, T/C (second compound 0.1 µM, first compound 0.03 µM): 82.2%
- viability, T/C (second compound 0.1 µM, first compound 0.0949 µM): 77.1%
- viability, T/C (second compound 0.1 µM, first compound 0.3 µM): 75.5%
- viability, T/C (second compound 0.1 µM, first compound 0.949 µM): 63.1%
- viability, T/C (second compound 0.1 µM, first compound 3 µM): 45.3%
- viability, T/C (second compound 0.316 µM, first compound 0.00949 µM): 79.2%
- viability, T/C (second compound 0.316 µM, first compound 0.03 µM): 81.5%
- viability, T/C (second compound 0.316 µM, first compound 0.0949 µM): 78.9%
- viability, T/C (second compound 0.316 µM, first compound 0.3 µM): 69.8%
- viability, T/C (second compound 0.316 µM, first compound 0.949 µM): 67.7%
- viability, T/C (second compound 0.316 µM, first compound 3 µM): 49.8%
- viability, T/C (second compound 1 µM, first compound 0.00949 µM): 80.3%
- viability, T/C (second compound 1 µM, first compound 0.03 µM): 71.2%
- viability, T/C (second compound 1 µM, first compound 0.0949 µM): 72.4%
- viability, T/C (second compound 1 µM, first compound 0.3 µM): 65.7%
- viability, T/C (second compound 1 µM, first compound 0.949 µM): 58.5%
- viability, T/C (second compound 1 µM, first compound 3 µM): 41.4%

Source: PubChem BioAssay AID1963449 (Molecular Pharmacology Branch, DTP, NCI, 2024)
